Source: the supplement of paper PMC13380429

How the values were obtained:
[1] = test system: A549-ACE2 infected with SARS-CoV-2; assay: morphology score (similarity to uninfected cells); higher = more like uninfected cells; conditions: 24 h
A549-ACE2 [2] = assay: drug-induced phospholipidosis relative to tamoxifen; higher = more phospholipidosis
Vero E6 [3] = assay: relative viability EC50 (midpoint between 100% and the lowest measured viability); higher = less toxic; conditions: 72 h
U2OS [4] = assay: as above; conditions: 72 h
HepG2 [5] = assay: as above; conditions: 72 h
Calu-3 [6] = assay: as above; conditions: 72 h
[7] = test system: A549-ACE2 infected with SARS-CoV-2; assay: cell count relative to DMSO; higher = less toxic; conditions: 24 h
[8] = test system: A549-ACE2 infected with SARS-CoV-2; assay: SARS-CoV-2 infection rate relative to DMSO; higher = more infection; conditions: 24 h
Vero E6 [9] = assay: drug sensitivity score (DSS) for viability; higher = more toxic; extreme values may be limits of the assay; conditions: 72 h
U2OS [10] = assay: as above; conditions: 72 h
HepG2 [11] = assay: as above; conditions: 72 h
Calu-3 [12] = assay: as above; conditions: 72 h
Caco-2 [13] = assay: as above; conditions: 72 h
Vero E6 [14] = assay: cell viability relative to DMSO; higher = less toxic; conditions: 72 h
U2OS [15] = assay: as above; conditions: 72 h
HepG2 [16] = assay: as above; conditions: 72 h
Calu-3 [17] = assay: as above; conditions: 72 h
Caco-2 [18] = assay: as above; conditions: 72 h
A549-ACE2 [19] = assay: phospholipidosis EC50; higher = less potent phospholipidosis inducer
Caco-2 [20] = assay: relative viability EC50 (midpoint between 100% and the lowest measured viability); higher = less toxic; conditions: 72 h

Cc1ccc(NC(=O)c2ccc(CN3CCN(C)CC3)cc2)cc1Nc1nc(-c2cccnc2)cs1 [masitinib]
Conditions	SARS-CoV-2 infection rate, [8] [%]	cell count, [7] [%]	cell viability, Caco-2 [18] [%]	cell viability, Calu-3 [17] [%]	cell viability, HepG2 [16] [%]	cell viability, U2OS [15] [%]	cell viability, Vero E6 [14] [%]	morphology score, [1]
1 nM	–	–	104	107	105	106	105	–
10 nM	–	–	99.5	88	103	101	102	–
100 nM	–	–	99.1	97.4	99.6	104	101	–
0.3 µM	98	88	–	–	–	–	–	0.14
1000 nM	–	–	97.3	97.9	101	98	98	–
10000 nM	–	–	72	75.1	43.9	93.2	88.9	–

A549-ACE2 [2], 0.3 µM
Conditions	drug-induced phospholipidosis [%]
24 h	-0.73
48 h	0.9
72 h	2.47

Conditions	drug sensitivity score	relative viability EC50 [µM]
Caco-2 [13]	1.6	–
Calu-3 [6]	–	> 10
Calu-3 [12]	1.2	–
HepG2 [5]	–	3.29
HepG2 [11]	2.9	–
U2OS [4]	–	> 10
U2OS [10]	0	–
Vero E6 [3]	–	> 10
Vero E6 [9]	0.1	–

O=C(c1ccc(OCCN2CCCCC2)cc1)c1c(-c2ccc(O)cc2)sc2cc(O)ccc12 [raloxifene]
Conditions	SARS-CoV-2 infection rate [%]	cell count [%]	cell viability [%]	morphology score	phospholipidosis EC50 [µM]
A549-ACE2 [19], 72 h	–	–	–	–	29.8
Caco-2 [18], 1 nM	–	–	108	–	–
Caco-2 [18], 10 nM	–	–	82.9	–	–
Caco-2 [18], 100 nM	–	–	100	–	–
Caco-2 [18], 1000 nM	–	–	78.3	–	–
Caco-2 [18], 10000 nM	–	–	60.9	–	–
Calu-3 [17], 1 nM	–	–	102	–	–
Calu-3 [17], 10 nM	–	–	92.4	–	–
Calu-3 [17], 100 nM	–	–	98.1	–	–
Calu-3 [17], 1000 nM	–	–	103	–	–
Calu-3 [17], 10000 nM	–	–	79.5	–	–
HepG2 [16], 1 nM	–	–	91.4	–	–
HepG2 [16], 10 nM	–	–	95.2	–	–
HepG2 [16], 100 nM	–	–	93.6	–	–
HepG2 [16], 1000 nM	–	–	101	–	–
HepG2 [16], 10000 nM	–	–	74.1	–	–
U2OS [15], 1 nM	–	–	93	–	–
U2OS [15], 10 nM	–	–	91.3	–	–
U2OS [15], 100 nM	–	–	97.7	–	–
U2OS [15], 1000 nM	–	–	95.4	–	–
U2OS [15], 10000 nM	–	–	89.9	–	–
Vero E6 [14], 1 nM	–	–	107	–	–
Vero E6 [14], 10 nM	–	–	98.8	–	–
Vero E6 [14], 100 nM	–	–	99.3	–	–
Vero E6 [14], 1000 nM	–	–	94.8	–	–
Vero E6 [14], 10000 nM	–	–	67.9	–	–
[1], 0.1 µM	–	–	–	-0.07	–
[1], 0.3 µM	–	–	–	0.17	–
[1], 1 µM	–	–	–	-0.1	–
[1], 3 µM	–	–	–	0.42	–
[7], 0.1 µM	–	94	–	–	–
[7], 0.3 µM	–	102	–	–	–
[7], 1 µM	–	97	–	–	–
[7], 3 µM	–	106	–	–	–
[8], 0.1 µM	99	–	–	–	–
[8], 0.3 µM	97	–	–	–	–
[8], 1 µM	104	–	–	–	–
[8], 3 µM	84	–	–	–	–

drug-induced phospholipidosis [%], A549-ACE2 [2]
Conditions	0.3 µM	0.833333 µM	3.33333 µM	6.66667 µM	10 µM	30 µM
24 h	-1.05	-0.52	10.1	22.3	37.7	-2.02
48 h	3.44	1.43	14.5	28.6	41	26.2
72 h	4.4	2.6	17.4	36	56	–

Conditions	drug sensitivity score	relative viability EC50 [µM]
Caco-2 [13]	4.6	–
Calu-3 [6]	–	> 10
Calu-3 [12]	0.5	–
HepG2 [11]	1	–
U2OS [4]	–	> 10
U2OS [10]	0	–
Vero E6 [9]	2.3	–

CNC(=O)c1cc(Oc2ccc(NC(=O)Nc3cc(C(C)(C)C)nn3-c3ccc4ncccc4c3)c(F)c2)ccn1 [rebastinib]
Conditions	SARS-CoV-2 infection rate, [8] [%]	cell count, [7] [%]	cell viability, Caco-2 [18] [%]	cell viability, Calu-3 [17] [%]	cell viability, HepG2 [16] [%]	cell viability, U2OS [15] [%]	cell viability, Vero E6 [14] [%]	morphology score, [1]
1 nM	–	–	98.4	100	104	97.9	98.2	–
10 nM	–	–	89.9	97.5	102	96.4	96.8	–
0.1 µM	97	104	–	–	–	–	–	0.31
100 nM	–	–	95.4	105	108	97	102	–
0.3 µM	92	103	–	–	–	–	–	0.24
1 µM	92	102	–	–	–	–	–	0.22
1000 nM	–	–	114	90.8	28.6	108	112	–
3 µM	95	96	–	–	–	–	–	0.12
10000 nM	–	–	30	42.6	6.1	9.6	9.9	–

drug-induced phospholipidosis [%], A549-ACE2 [2]
Conditions	0.3 µM	0.833333 µM	3.33333 µM	6.66667 µM	10 µM
24 h	-0.9	-2.36	-1.54	-1.91	-2.66
48 h	-0.69	-2.5	-1.43	-0.4	0.77
72 h	0.586	-3.51	-2.2	1.53	5.87

Conditions	drug sensitivity score	relative viability EC50 [µM]
Caco-2 [13]	3.1	–
Caco-2 [20]	–	3.94
Calu-3 [6]	–	1.94
Calu-3 [12]	4.6	–
HepG2 [5]	–	0.638
HepG2 [11]	13.3	–
U2OS [4]	–	3.62
U2OS [10]	4.4	–
Vero E6 [3]	–	3.74
Vero E6 [9]	4.3	–

OCc1cc(C(O)CNCCCCCCOCCCCc2ccccc2)ccc1O (stereo unspecified) [salmeterol]
Conditions	SARS-CoV-2 infection rate [%]	cell count [%]	cell viability [%]	morphology score	phospholipidosis EC50 [µM]
A549-ACE2 [19], 24 h	–	–	–	–	5.09
A549-ACE2 [19], 48 h	–	–	–	–	7.38
A549-ACE2 [19], 72 h	–	–	–	–	8.86
Caco-2 [18], 1 nM	–	–	97.4	–	–
Caco-2 [18], 10 nM	–	–	96.6	–	–
Caco-2 [18], 100 nM	–	–	95.1	–	–
Caco-2 [18], 1000 nM	–	–	92.7	–	–
Caco-2 [18], 10000 nM	–	–	86.6	–	–
Calu-3 [17], 1 nM	–	–	112	–	–
Calu-3 [17], 10 nM	–	–	97.4	–	–
Calu-3 [17], 100 nM	–	–	100	–	–
Calu-3 [17], 1000 nM	–	–	99	–	–
Calu-3 [17], 10000 nM	–	–	98.9	–	–
HepG2 [16], 1 nM	–	–	107	–	–
HepG2 [16], 10 nM	–	–	107	–	–
HepG2 [16], 100 nM	–	–	94	–	–
HepG2 [16], 1000 nM	–	–	105	–	–
HepG2 [16], 10000 nM	–	–	70.8	–	–
U2OS [15], 1 nM	–	–	103	–	–
U2OS [15], 10 nM	–	–	97.7	–	–
U2OS [15], 100 nM	–	–	99.9	–	–
U2OS [15], 1000 nM	–	–	99.3	–	–
U2OS [15], 10000 nM	–	–	95.2	–	–
Vero E6 [14], 1 nM	–	–	101	–	–
Vero E6 [14], 10 nM	–	–	106	–	–
Vero E6 [14], 100 nM	–	–	101	–	–
Vero E6 [14], 1000 nM	–	–	107	–	–
Vero E6 [14], 10000 nM	–	–	97.5	–	–
[1], 0.3 µM	–	–	–	-0.02	–
[1], 3 µM	–	–	–	0.15	–
[1], 10 µM	–	–	–	0.89	–
[1], 30 µM	–	–	–	0.58	–
[7], 0.3 µM	–	101	–	–	–
[7], 3 µM	–	108	–	–	–
[7], 10 µM	–	121	–	–	–
[7], 30 µM	–	102	–	–	–
[8], 0.3 µM	107	–	–	–	–
[8], 3 µM	91	–	–	–	–
[8], 10 µM	19	–	–	–	–
[8], 30 µM	17	–	–	–	–

drug-induced phospholipidosis [%], A549-ACE2 [2]
Conditions	0.3 µM	0.833333 µM	3.33333 µM	6.66667 µM	10 µM	30 µM
24 h	-0.12	-0.14	9.06	65.1	85.7	80.3
48 h	2.35	2.68	8.06	52.9	83.5	117
72 h	3.27	1.57	6.45	37.9	80.7	130

Conditions	drug sensitivity score	relative viability EC50 [µM]
Caco-2 [13]	0.1	–
Caco-2 [20]	–	> 10
Calu-3 [6]	–	> 10
Calu-3 [12]	0	–
HepG2 [11]	1	–
U2OS [4]	–	> 10
U2OS [10]	0	–
Vero E6 [3]	–	> 10
Vero E6 [9]	0	–
